According to patent US20090004185A1, “AMINO-SUBSTITUTED QUINAZOLINE DERIVATIVES AS INHIBITORS OF BETA-CATENIN/TCF-4 PATHWAY AND CANCER TREATMENT AGENTS” (WYETH, priority 2007, published 2009):

Columns and labels:
β-catenin/Tcf-4 = experiment: cells; assay type: cell-based; conditions: 24 hours of incubation with compound, ratio Firefly/Renilla luciferase
Outline: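 SW480-derived lines with integrated reporters (Tcf-4-driven firefly luciferase; SV40 firefly as specificity control; SV40 Renilla for cell number/toxicity), treated 24 hours with titrated compounds, final 0.316% DMSO. Dual-luciferase read-out; firefly/Renilla ratio as % of control, duplicate plates, IC50 (nM) from curve fit.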

SV40-Luc = SV40-Luc control luciferase reporter assay, SV 5A8 cell line (SV40-Luc and SV40-R-Luc), control for non-specific inhibitors; assay type: cell-based, human; conditions: SV 5A8 cells derived from SW480, 24 hours of incubation with compound, ratio Firefly/Renilla luciferase
Outline: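 SW480-derived lines with integrated reporters: SV 5A8 (SV40-Luc + SV40-R-Luc), Tcf 33.13 and Tcf 22C11 (Tcf-4-Luc + SV40-R-Luc). Compounds titrated onto cells for 24 h, final DMSO 0.316%. Firefly and Renilla luminescence read by dual-luciferase; firefly/Renilla ratio as % of control fitted for IC50.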

[1] = Tcf 22C11 cells derived from SW480
[2] = Tcf 33.13 cells derived from SW480
[3] = Homo sapiens, SW480, 24 h, Tcf 33.13 cells derived from SW480
[4] = Homo sapiens, Tcf22C11, 24 h, Tcf 22C11 cells derived from SW480

SMILES	IC50 (β-catenin/Tcf-4; [1])	IC50 (β-catenin/Tcf-4; [2])	IC50 (SV40-Luc)	IC50 (β-catenin/Tcf-4; [3])	IC50 (β-catenin/Tcf-4; [4])	IC50 (SV40-Luc; Homo sapiens, SV5A8, 24 h)
Cc1ccc2nc(N(C)C)nc(NCc3ccc(NC(=O)c4ccc(F)cc4)cc3)c2c1 [Example 40, N-[4-({[2-(dimethylamino)-6-methylquinazolin-4-yl]amino}methyl)phenyl]-4-fluorobenzamide]	1620 nM	2050 nM	> 11600 nM	–	–	–
CNc1nc(NCc2ccc(NC(=O)c3cc(F)cc(F)c3)cc2)c2cc(C)ccc2n1 [Example 41, 3,5-difluoro-N-[4-({[6-methyl-2-(methylamino)quinazolin-4-yl]amino}methyl)phenyl]benzamide]	–	–	–	1650 nM	2320 nM	> 5770 nM
Cc1ccc2nc(N3CCCCC3)nc(NCc3ccc(NC(=O)c4ccc(F)cc4)cc3)c2c1 [Example 42, 4-fluoro-N-(4-{[(6-methyl-2-piperidin-1-ylquinazolin-4-yl)amino]methyl}phenyl)benzamide]	–	–	–	2940 nM	9250 nM	> 10600 nM
Cc1ccc2nc(N3CCNCC3)nc(NCc3ccc(NC(=O)c4ccc(F)cc4)cc3)c2c1 [Example 45]	1800 nM	1480 nM	> 10600 nM	–	–	–
Cc1ccc2nc(N3CCN(C)CC3)nc(NCc3ccc(NC(=O)c4ccc(F)cc4)cc3)c2c1 [Example 46, 4-fluoro-N-((6-methyl-2-(4-methylpiperazin-1-yl)quinazolin-4-ylamino)methyl-phenyl)benzamide]	> 20800 nM	> 20800 nM	> 20800 nM	–	–	–
CNc1nc(NCc2ccc(NC(=O)c3ccccc3F)cc2)c2cc(C)ccc2n1 [Example 47, 2-fluoro-N-[4-({[6-methyl-2-(methylamino)quinazolin-4-yl]amino}methyl)phenyl]benzamide]	–	–	–	12800 nM	12000 nM	> 24100 nM
Cc1ccc2nc(N3CCN(C)CC3)nc(NCc3ccc(NC(=O)c4ccc(F)cc4)cc3)c2c1 [Example 48, 4-fluoro-N-[4-({[6-methyl-2-(4-methylpiperazin-1-yl)quinazolin-4-yl]amino}methyl)phenyl]benzamide]	–	–	–	> 20600 nM	> 20600 nM	> 20600 nM
Cc1ccc2nc(N3CCN[C@@H](C)C3)nc(NCc3ccc(NC(=O)c4ccc(F)cc4)cc3)c2c1 [Example 51, 4-fluoro-N-{4-[({6-methyl-2-[(3S)-3-methylpiperazin-1-yl]quinazolin-4-yl}amino)methyl]phenyl}benzamide]	–	–	–	987 nM	1070 nM	> 5160 nM
Cc1cc(C)c2nc(N(C)C)nc(NCc3ccc(NC(=O)c4ccc(F)cc4)cc3)c2c1 [Example 52, N-[4-({[2-(dimethylamino)-6,8-dimethylquinazolin-4-yl]amino}methyl)phenyl]-4-fluorobenzamide]	–	–	–	1310 nM	1650 nM	> 22500 nM
Cc1ccc2nc(N3CCN(c4ccccn4)CC3)nc(NCc3ccc(NC(=O)c4ccc(F)cc4)cc3)c2c1 [Example 55, 4-fluoro-N-[4-({[6-methyl-2-(4-pyridin-2-ylpiperazin-1-yl)quinazolin-4-yl]amino}methyl)phenyl]benzamide]	–	–	–	3260 nM	8650 nM	> 18300 nM
CN(C)c1ccc(-c2ccc3nc(N(C)C)nc(NCc4ccc(NC(=O)c5ccc(F)cc5)cc4)c3c2)cn1 [Example 59, N-{4-[({2-(dimethylamino)-6-[6-(dimethylamino)pyridin-3-yl]quinazolin-4-yl}amino)methyl]phenyl}-4-fluorobenzamide]	–	–	–	453 nM	229 nM	> 2330 nM
CN(C)c1nc(NCc2ccc(NC(=O)c3ccc(F)cc3)cc2)c2cc(F)ccc2n1 [Example 60, N-[4-({[2-(dimethylamino)-6-fluoroquinazolin-4-yl]amino}methyl)phenyl]-4-fluorobenzamide]	–	–	–	1950 nM	5390 nM	> 11500 nM
CC(C)c1ccc2c(NCc3ccc(NC(=O)c4ccc(F)cc4)cc3)nc(N(C)C)nc2c1 [Example 61, N-[4-({[2-(dimethylamino)-7-isopropylquinazolin-4-yl]amino}methyl)phenyl]-4-fluorobenzamide]	–	–	–	327 nM	532 nM	> 5060 nM
CC(C)c1ccc2c(NCc3ccc(NC(=O)c4ccc(Cl)nc4)cc3)nc(N(C)C)nc2c1 [Example 62, 6-chloro-N-[4-({[2-(dimethylamino)-7-isopropylquinazolin-4-yl]amino}methyl)phenyl]nicotinamide]	–	–	–	808 nM	1110 nM	> 9780 nM
CC(C)c1ccc2c(NCc3ccc(NC(=O)C4CCN(Cc5ccccc5)CC4)cc3)nc(N(C)C)nc2c1 [Example 63, 1-benzyl-N-[4-({[2-(dimethylamino)-7-isopropylquinazolin-4-yl]amino}methyl)phenyl]piperidine-4-carboxamide]	–	–	–	1190 nM	2150 nM	> 8720 nM
Cc1c(F)ccc2c(NCc3ccc(NC(=O)c4ccc(Cl)nc4)cc3)nc(N(C)C)nc12 [Example 64, 6-chloro-N-[4-({[2-(dimethylamino)-7-fluoro-8-methylquinazolin-4-yl]amino}methyl)phenyl]nicotinamide]	–	–	–	8960 nM	11100 nM	> 10800 nM
CN(C)CC#Cc1ccc2nc(N(C)C)nc(NCc3ccc(NC(=O)c4ccc(F)cc4)cc3)c2c1 [Example 69, N-{4-[({2-(dimethylamino)-6-[3-(dimethylamino)prop-1-yn-1-yl]quinazolin-4-yl}amino)methyl]phenyl}-4-fluorobenzamide]	–	–	–	1940 nM	2010 nM	> 20100 nM

The next lines start with the values.

IC50 (β-catenin/Tcf-4; [1])	IC50 (β-catenin/Tcf-4; [2])	IC50 (SV40-Luc)	IC50 (β-catenin/Tcf-4; [3])	IC50 (β-catenin/Tcf-4; [4])	IC50 (SV40-Luc; Homo sapiens, SV5A8, 24 h)	SMILES
428 nM	217 nM	> 5820 nM	–	–	–	Cc1ccc2nc(N(C)C)nc(NCc3ccc(NC(=O)c4ccc(F)cc4)cc3)c2c1 [Example 39, N-[4-({[2-(dimethylamino)-6-methylquinazolin-4-yl]amino}methyl)phenyl]-4-fluorobenzamide]
–	–	–	492 nM	738 nM	> 5460 nM	CCN(CC)c1nc(NCc2ccc(NC(=O)c3ccc(F)cc3)cc2)c2cc(C)ccc2n1 [Example 43, N-[4-((2-(diethylamino)-6-methylquinazolin-4-ylamino)methyl)phenyl)-4-fluorobenzamide]
–	–	–	> 22000 nM	> 22000 nM	> 22000 nM	Cc1ccc2nc(N3CCCC3)nc(NCc3ccc(NC(=O)c4ccc(F)cc4)cc3)c2c1 [Example 44, N-(4-((2-(1-azacyclopentyl)-6-methylquinazolin-4-ylamino)methyl)phenyl)-4-fluorobenzamide]
–	–	–	> 2510 nM	> 2510 nM	> 10000 nM	Cc1cc(C)c2nc(N3CCN(C)CC3)nc(NCc3ccc(NC(=O)c4ccc(F)cc4)cc3)c2c1 [Example 49, N-[4-({[6,8-dimethyl-2-(4-methylpiperazin-1-yl)quinazolin-4-yl]amino}methyl)phenyl]-4-fluorobenzamide]
–	–	–	306 nM	462 nM	> 2800 nM	Cc1ccc2nc(N(C)C)nc(NCc3ccc(NC(=O)c4ccc(Cl)cc4)cc3)c2c1 [Example 53, 4-chloro-N-[4-({[2-(dimethylamino)-6-methylquinazolin-4-yl]amino}methyl)phenyl]benzamide]
–	–	–	846 nM	1230 nM	> 18400 nM	CCOC(=O)N1CCN(c2nc(NCc3ccc(NC(=O)c4ccc(F)cc4)cc3)c3cc(C)ccc3n2)CC1 [Example 54, Ethyl 4-[4-({4-[(4-fluorobenzoyl)amino]benzyl}amino)-6-methylquinazolin-2-yl]piperazine-1-carboxylate]
–	–	–	2010 nM	1740 nM	> 5170 nM	Cc1ccc2nc(N3CCCCCC3)nc(NCc3ccc(NC(=O)c4ccc(F)cc4)cc3)c2c1 [Example 56, N-(4-{[(2-azepan-1-yl-6-methylquinazolin-4-yl)amino]methyl}phenyl)-4-fluorobenzamide]
–	–	–	1600 nM	923 nM	> 10000 nM	CCN1CCN(c2nc(NCc3ccc(NC(=O)c4ccc(F)cc4)cc3)c3cc(C)ccc3n2)CC1 [Example 57, N-[4-({[2-(4-ethylpiperazin-1-yl)-6-methylquinazolin-4-yl]amino}methyl)phenyl]-4-fluorobenzamide]
–	–	–	2080 nM	2500 nM	4190 nM	Cc1ccc2nc(N(C)Cc3ccccn3)nc(NCc3ccc(NC(=O)c4ccc(F)cc4)cc3)c2c1 [Example 58, 4-fluoro-N-{4-[({6-methyl-2-[methyl(pyridin-2-ylmethyl)amino]quinazolin-4-yl}amino)methyl]phenyl}benzamide]
–	–	–	1450 nM	1210 nM	> 10000 nM	CNc1nc(NCc2ccc(NC(=O)c3ccc(Cl)cc3)cc2)c2cc(-c3ccco3)cc(C)c2n1 [Example 67, 4-chloro-N-[4-({[6-(2-furyl)-8-methyl-2-(methylamino)quinazolin-4-yl]amino}methyl)phenyl]benzamide]
–	–	–	400 nM	530 nM	> 4620 nM	CN(C)c1nc(NCc2ccc(NC(=O)c3ccc(F)cc3)cc2)c2cc(I)ccc2n1 [Example 68, N-[4-({[2-(dimethylamino)-6-iodoquinazolin-4-yl]amino}methyl)phenyl]-4-fluorobenzamide]
